Here are results for seven molecules from patent publication US20230079757A1, “METHODS AND MATERIALS FOR TREATING CANCER” (Mayo Foundation for Medical Education and Research, priority 2020, published 2023).

Changes are numbered by the printed parent chain. l = locked nucleic acid (LNA); d = 2'-deoxy (DNA)

For one data set, the system named is Foxa1 protein. In words: Western blot analysis of Foxa1 protein in MyC-CaP cells after ASO transfection. It is filed as cell-based. The settings on record: MyC-CaP murine prostate cancer cells, 48 hours after transfection, vs control ASO. The method, then: (§1) FIGS. 19A-19B. FOXA1 ASOs sensitize prostate cancer to anti-PD-L1 immunotherapy in mice. (FIG. 19A) Western blot analysis of Foxal protein in MyC-CaP mouse prostate cancer cells at 48 hours after transfection with control ASO (Con ASO), Foxal gene specific ASO1, or Foxa1 gene specific ASO2. Erk2 was used as a loading control. (FIG. 19B) Growth of subcutaneous MyC-CaP prostate tumors in wild type intact FVB male mice. Mice were treated with anti-PD-L1 or non-specific IgG (10 mg/kg) in combination with control ASO (Con ASO) (12.5 mg/kg), Foxal ASO1 (12.5 mg/kg), or Foxa1 ASO2 (12.5 mg/kg) for the indicated number of days. Data shown as means ±s.d. (n=6). Statistical significance was determined by two-way ANOVA (* P<0.05; ** P <0.01; *** P <0.0001).
MyC-CaP murine prostate cancer cells were transfected with control ASO (Con ASO) or two Foxal-specific ASOs (Foxal ASO1 and Foxal ASO2).
The MyC-CaP murine prostate cancer cell line, originally derived from prostate tumors of Hi-Myc transgenic mice in FVB genetic background, was purchased from ATCC (Manassas, Va.).
Antibodies used include anti-FOXA1 antibody (# ab23738, Abcam), anti-ERK2 (# sc-1647, Santa Cruz Biotechnology), anti-mouse PD-L1 mAb (clone 10B5), and InVivoMAb mouse IgG1 isotype control (clone MOPC-21) (# BE0083, Bio X Cell).
Background: In western blotting, separated proteins are transferred to a membrane and probed.

For another data set, the system named is MyC-CaP prostate tumors. In words: Growth of subcutaneous MyC-CaP prostate tumors in FVB male mice. The settings on record: ASO 12.5 mg/kg intraperitoneal, n=6. It is filed as in vivo. How it is done:
as §1
MyC-CaP cells (3×10^6) were injected subcutaneously into the right flank of 6-week-old wild-type intact FVB male mice. When the average tumor volume reached approximately 100 mm^3, mice were randomized into groups subsequently treated with intraperitoneal injection of anti-PD-L1 or non-specific control IgG (10 mg/kg) in combination with control antisense oligonucleotides (12.5 mg/kg), Foxal ASO1 (12.5 mg/kg), or Foxal-ASO2 (12.5 mg/kg).
Thirty six 6-week-old wild-type intact FVB mice were purchased from Jackson Laboratories (Bar Harbor, Me.). Tumor volume was measured by digital caliper and calculated using a formula of length×width×width×0.5.

The subject of data set [1] is TRAMP-C2 tumors. In words: Growth and survival of TRAMP-C2 prostate tumors in syngeneic C57BL/6 mice treated intratumorally with Poly(I:C). Format: in vivo. The source says: (§2) FIGS. 13A-13H. FOXA1 overexpression confers cancer immuno- and chemo-therapy resistance in mice and patients. FIG. 13A) Schematic diagram of generation and Poly(I:C) treatment of TRAMP-C2 prostate tumors in syngeneic mice. FIG. 13B) Growth of TRAMP-C2-Vector and TRAMP-C2-FOXA1ΔαH3 tumors treated with or without Poly(I:C). FIG. 13C) Tumor-free survival of syngeneic mice bearing TRAMP-C2-Vector or TRAMP-C2-FOXA1ΔαH3 tumors administrated with or without Poly(I:C). Statistical significance was determined by Log-rank (Mantel-Cox) test. FIGS. 13D and 13E) PhenoGraph-defined cellular distribution and clustering, as defined by tSNE1 and tSNE2, colored by cellular phenotypes in TRAMP-C2-Vector and TRAMP-C2-FOXA1ΔαH3 tumors from mice at 16 days post vehicle or Poly(I:C) treatment (FIG. 13D). Data were derived from all normalized viable single cells, subjected to the PhenoGraph algorithm. Data in the bar graphs (FIG. 13E) are means ±s.d, n=3. […] Statistical significance was determined by unpaired two-tailed Student's t tests in FIGS. 13E, 13F and 13G. FIG. 13H) Progression-free survival of patients with FOXA1-expression low or high urothelial carcinoma treated with anti-PD1 immunotherapy. Statistical significance was determined by Log-rank (Mantel-Cox) test.
To directly explore the role of FOXA1 in inhibiting cancer immune response, stable murine prostate cancer TRAMP-C2 cell lines overexpressing FOXA1-WT, cancer-associated mutant FOXA1-R261G and DNA binding-deficient mutant FOXA1ΔαH3, were established. […]
TRAMP-C2-Vector or TRAMP-C2-FOXA1ΔαH3 cells (3×10^6) were injected subcutaneously into the right flank of 8-week old male C57BL/6 on day 0. Tumors were measured twice per week with calipers and the volume calculated (length×width×width×0.5). Poly I:C (2.5 mg/kg, 100 pl) purchased from Sigma-Aldrich (# P1530) or vehicle (PBS, 100 pl) was administered by intratumoral injection twice per week (five doses in total) and tumors were measured twice per week until the tumor volume reached the maximum allowed size ([…]). […]

In data set [2] the test system is TRAMP-C2 tumors. The data set can be described thus: CyTOF analysis of immune cells in TRAMP-C2 tumors after Poly(I:C). Format: in vivo, mice.
Excerpt: as §2
TRAMP-C2-Vector or TRAMP-C2-FOXA1ΔαH3 cells (3×10^6) were injected subcutaneously into the right flank of 8-week old male C57BL/6 on day 0. Tumors were measured twice per week with calipers and the volume calculated (length×width×width×0.5). Poly I:C (2.5 mg/kg, 100 pl) purchased from Sigma-Aldrich (# P1530) or vehicle (PBS, 100 pl) was administered by intratumoral injection twice per week (five doses in total) and tumors were measured twice per week until the tumor volume reached the maximum allowed size ([…]). For CyTOF and Immunofluorescence experiments, mice were euthanized at 48 hours post the last administration.
Single tumor cells were isolated using the Mouse Tumor Dissociation Kit (Miltenyi Biotec, # 130-096-730) following standard protocol. CyTOF staining panels are detailed in Table 3. […]

The target of data set [3] is T1, GST-tagged STAT2 DNA binding domain (a.a. 312-486) (UniProt P52630 312-486).
T1 construct: range 312-486; also called STAT2-DBD; STAT2 DBD; not shown: GST tag
T1 sequence (looked up): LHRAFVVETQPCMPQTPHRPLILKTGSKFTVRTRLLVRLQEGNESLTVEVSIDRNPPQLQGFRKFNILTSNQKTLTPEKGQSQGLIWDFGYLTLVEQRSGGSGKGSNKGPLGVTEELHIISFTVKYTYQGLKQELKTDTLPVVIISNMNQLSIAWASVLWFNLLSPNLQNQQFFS
In words: mutagenesis and GST pull down (FIG. 9E). The method, then: (§3) For extraction of nuclear and cytoplasmic proteins from cells, NE-PER Nuclear and Cytoplasmic Extraction Kit (# 78835, Thermo Fisher Scientific) was used according to the manufacturer's instructions. IP buffer (50 mM Tris-HCl pH7.5, 150 mM NaCl, 1% NP40, 0.5% Sodium Deoxycholate) was used to extract whole cell lysate. P rotein A/G agarose (# 20421, Thermo Fisher Scientific) was used for immunoprecipitation of FOXA1 (# ab23738, Abcam) and Flag-tag (dilution 1:1000; # F1804, Sigma-Aldrich). Monoclonal anti-HA agarose (# A2095, Sigma-Aldrich) was used for HA-tag Co-IP. For glutathione-S-transferase (GST) pulldown assay, GST-tagged STAT2 fragment expressed at E. coli was purified by Glutathione Sepharose 4B beads (# 84-239, Genesee Scientific) and incubated with lysate from 293T cells expressing interested proteins, and GST pulldown assays were performed. For protein co-IP, samples eluted in IP butter were incubated with agarose beads and antibodies overnight at 4° C. and washed with 6 times with IP buffer in the following day. Samples were boiled for 10 minutes in 50 μl sample buffer (2% SDS, 10% glycerol, 10% β-mercaptoethanol, bromophenol blue and Tris-HCl, pH 6.8) and subjected to Western blotting.

In the next data set the target is T2, STAT2 (human, UniProt P52630 1-851).
T2 construct: also called endogenous STAT2
T2 sequence (P52630 whole entry): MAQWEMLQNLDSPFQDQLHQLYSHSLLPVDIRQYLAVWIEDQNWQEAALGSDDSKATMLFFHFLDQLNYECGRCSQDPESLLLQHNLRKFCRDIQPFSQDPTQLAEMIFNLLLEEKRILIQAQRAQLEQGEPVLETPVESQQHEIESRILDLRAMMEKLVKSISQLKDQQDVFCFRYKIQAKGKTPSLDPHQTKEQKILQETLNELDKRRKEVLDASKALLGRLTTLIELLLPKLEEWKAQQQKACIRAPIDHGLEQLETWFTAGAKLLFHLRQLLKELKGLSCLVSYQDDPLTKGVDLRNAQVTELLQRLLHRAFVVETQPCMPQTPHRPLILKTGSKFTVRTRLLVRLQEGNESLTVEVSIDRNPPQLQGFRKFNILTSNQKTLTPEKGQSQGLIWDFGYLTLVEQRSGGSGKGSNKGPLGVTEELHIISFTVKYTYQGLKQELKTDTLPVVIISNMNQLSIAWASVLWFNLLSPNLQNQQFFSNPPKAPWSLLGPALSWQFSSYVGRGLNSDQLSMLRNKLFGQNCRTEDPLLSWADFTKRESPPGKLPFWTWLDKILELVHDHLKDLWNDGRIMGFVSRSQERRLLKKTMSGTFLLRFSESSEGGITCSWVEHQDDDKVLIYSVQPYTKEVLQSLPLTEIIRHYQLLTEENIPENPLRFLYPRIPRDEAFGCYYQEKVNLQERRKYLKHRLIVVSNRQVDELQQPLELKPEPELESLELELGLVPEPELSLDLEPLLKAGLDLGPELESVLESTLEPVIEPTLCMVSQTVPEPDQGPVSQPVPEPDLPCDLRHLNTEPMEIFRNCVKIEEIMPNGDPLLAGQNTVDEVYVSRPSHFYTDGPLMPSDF
The data set can be described thus: co-IP of ectopically expressed proteins in 293T cells (FIG. 11E). How it is done:
as §3

As for “Foxa1 ASO1: LNA/PS antisense oligo +G*+G*+T*A*G*C*G*C*C*A*T*A*A*G*G*A*G*+A*+G*+T (SEQ ID NO: 42) (antisense GGTAGCGCCATAAGGAGAGT; sugars from the 5' end l3 d14 l3, all phosphorothioate, methylation of C not given here)”, in the data set on Foxa1 protein, the Foxa1 protein knockdown result is “substantially knocked down”. The tumor growth entry with MyC-CaP prostate tumors is reported as “significantly inhibited tumor growth”.

Regarding “Foxa1 ASO2: LNA/PS antisense oligo +T*+G*+G*A*T*G*G*C*C*A*T*C*G*+T*+G*+A (SEQ ID NO: 43) (antisense TGGATGGCCATCGTGA; sugars from the 5' end l3 d10 l3, all phosphorothioate, methylation of C not given here)”, the Foxa1 protein knockdown entry in the data set on Foxa1 protein was “substantially knocked down”. In addition, the tumor growth result with MyC-CaP prostate tumors is “significantly inhibited tumor growth”.

On to Poly(I:C), for which, in the data set with TRAMP-C2 tumors [1] (TRAMP-C2-FOXA1ΔαH3 tumors, Poly I:C 2.5 mg/kg intratumoral), the tumor growth-inhibitory effect entry was “largely diminished”. In the data set on TRAMP-C2 tumors [1] (TRAMP-C2-Vector tumors, Poly I:C 2.5 mg/kg intratumoral), the overall mouse survival result is “prolonged”. Moreover, the tumor growth result in the data set on TRAMP-C2 tumors [1] (TRAMP-C2-Vector tumors, Poly I:C 2.5 mg/kg intratumoral twice per week, five doses) was “decreased the growth”. Further, the “TILs, especially CD8+ T and NK cells” value in the data set with TRAMP-C2 tumors [2] (TRAMP-C2-FOXA1ΔαH3 tumors) was “such effect was diminished”. Moreover, in the data set with TRAMP-C2 tumors [2] (TRAMP-C2-Vector tumors), the “CD11b+Gr1+ myeloid-derived suppressor cells (MDSCs)” value is “reduced”; the “TILs, especially CD8+ T and NK cells” value is listed as “discernibly increased”.

B1: FOXA1 forkhead domain-containing region (FKCR, a.a. 141-294) (other, UniProt P55317 141-294, looked up)
chain: MAYAPSNLGRSRAGGGGDAKTFKRSYPHAKPPYSYISLITMAIQQAPSKMLTLSEIYQWIMDLFPYYRQNQQRWQNSIRHSLSFNDCFVKVARSPDKPGKGSYWTLHPDSGNMFENGCYLRRQKRFKCEKQPGAGGGGGSGSGGSGAKGGPESR
notes: Expressed in 293T cells, and the lysate was used for GST pulldown; also called FOXA1-FKCR
As to B1, in data set [3], the binding result is “binds”.

B2: FOXA1-F266L (other, UniProt P55317 1-472, looked up)
chain: MLGTVKMEGHETSDWNSYYADTQEAYSSVPVSNMNSGLGSMNSMNTYMTMNTMTTSGNMTPASFNMSYANPGLGAGLSPGAVAGMPGGSAGAMNSMTAAGVTAMGTALSPSGMGAMGAQQAASMNGLGPYAAAMNPCMSPMAYAPSNLGRSRAGGGGDAKTFKRSYPHAKPPYSYISLITMAIQQAPSKMLTLSEIYQWIMDLFPYYRQNQQRWQNSIRHSLSFNDCFVKVARSPDKPGKGSYWTLHPDSGNMFENGCYLRRQKRLKCEKQPGAGGGGGSGSGGSGAKGGPESRKDPSGASNPSADSPLHRGVHGKTGQLEGAPAPGPAASPQTLDHSGATATGGASELKTPASSTAPPISSGPGALASVPASHPAHGLAPHESQLHLKGDPHYSFNHPFSINNLMSSSEQQHKLDFKAYEQALQYSPYGSTLPASLPLGSASVTTRSPIEPSALEPAYYQGVYSRPVLNTS
notes: Ectopically expressed in 293T cells
For the molecule B2, the binding result with STAT2 is reported as “binds”.

B3: FOXA1-R261G (other, UniProt P55317 1-472, looked up)
chain: B2 chain with R261G, L266F
notes: as for B2
As for B3, the binding result with STAT2 is “binds”.

B4: FOXA1-H247Q (other, UniProt P55317 1-472, looked up)
chain: B2 chain with H247Q, L266F
notes: as for B2
On to B4, for which the binding result with STAT2 is “binds”.
